Where a chain is given by its changes, count along the chain named. *1 amine or outer side, *2 acyl side, *3 side chain or, on linkers, in order; H or OH if unused. Where a SMILES comes first, the peptide text is derived from it. γGlu = O=C(O)[CH](CCC(=O)[*:2])N[*:1]
Legend:
human CaSR P39S mutant = target: T1, human CaSR P39S mutant (Homo sapiens, UniProt P41180, P39S); test: Calcium mobilization assay, CaSR P39S mutant; assay type: cell-based; details: for Response in calcium mobilization assay: in words
T1 construct: expressed in transfected cells; host or cells: PEAKrapid cells (ATCC), pcDNA 3.1, transient transfection
T1 sequence (P41180 20-1078 P39S): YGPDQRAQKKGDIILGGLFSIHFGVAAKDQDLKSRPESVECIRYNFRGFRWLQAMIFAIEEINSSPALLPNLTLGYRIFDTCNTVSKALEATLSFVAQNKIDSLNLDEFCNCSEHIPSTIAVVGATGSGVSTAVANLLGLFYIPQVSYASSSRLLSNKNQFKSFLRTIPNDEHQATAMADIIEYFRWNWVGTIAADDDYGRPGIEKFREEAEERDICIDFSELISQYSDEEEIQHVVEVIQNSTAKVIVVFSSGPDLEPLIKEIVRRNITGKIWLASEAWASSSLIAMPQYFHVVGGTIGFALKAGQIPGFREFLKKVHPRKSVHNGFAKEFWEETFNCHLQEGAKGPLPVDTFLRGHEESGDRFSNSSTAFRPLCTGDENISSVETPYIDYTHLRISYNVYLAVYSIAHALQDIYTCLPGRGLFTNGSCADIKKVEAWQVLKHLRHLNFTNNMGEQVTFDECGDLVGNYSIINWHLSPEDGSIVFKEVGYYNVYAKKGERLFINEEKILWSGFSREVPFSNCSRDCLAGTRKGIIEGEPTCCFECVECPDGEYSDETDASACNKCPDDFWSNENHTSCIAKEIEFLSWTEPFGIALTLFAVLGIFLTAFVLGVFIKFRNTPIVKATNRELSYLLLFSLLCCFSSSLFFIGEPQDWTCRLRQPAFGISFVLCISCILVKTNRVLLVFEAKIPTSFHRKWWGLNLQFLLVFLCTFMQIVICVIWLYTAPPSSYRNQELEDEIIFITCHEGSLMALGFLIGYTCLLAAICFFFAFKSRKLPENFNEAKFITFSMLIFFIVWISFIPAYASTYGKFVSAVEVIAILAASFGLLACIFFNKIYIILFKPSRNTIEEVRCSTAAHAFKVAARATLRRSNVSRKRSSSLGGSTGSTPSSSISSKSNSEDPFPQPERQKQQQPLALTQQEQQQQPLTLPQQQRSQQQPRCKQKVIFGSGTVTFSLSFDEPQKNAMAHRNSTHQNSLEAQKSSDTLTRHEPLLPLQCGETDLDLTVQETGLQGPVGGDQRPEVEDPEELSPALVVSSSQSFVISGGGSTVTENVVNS
Protocol: (§1) The CaSR receptor responsiveness was assessed by using PEAK^rapid cells (ATCC, Manassas, VA, USA) transiently transfected with the receptor DNA by the method reported by Kitajima et al.[6]. Briefly, human CaSR or its mutant cDNA with a signal sequence (MAFYSCCWVLLALTWHTSA) followed by FLAG-tag (DYKDDDDK) were inserted into pcDNA 3.1 expression vectors in Opti-MEM I medium (Thermo Fisher Scientific), mixed with FuGENE 6 (Roche), and poured onto PEAK^rapid cells grown at a submaximal concentration. After culturing for 24 h in 96-well plates, the cells were incubated with 5 µM Calcium-5 solution (Calcium-5 assay kit, Molecular Devices) for 45–60 min, and measurements were performed using a plate reader (FDSS/µCELL, Hamamatsu Photonics, Shizuoka, Japan) and its associated software. The activation of CaSR expressed in cells increases the intracellular Ca^2+ concentration, which is measured using a Ca^2+-sensitive dye. The binding of Ca^2+ to the Ca^2+-sensitive dye increases dye fluorescence, with excitation at 485 nm and emission at 525 nm. Test compounds were dissolved and administered in the assay buffer (146 mM NaCl, 1 mM MgSO4, 20 mM HEPES, 1 mM CaCl2, 2.5 mM probenecid, and 1.39 mM glucose, pH 7.4). Transiently transfected cells were challenged with compounds and compared with the vehicle alone and/or mock-transfected cells. The concentration dependence of the fluorescence intensity (influx of Ca^2+) was analyzed using the plate reader at 1 s intervals for 180 s. For the dose–response curve calculations, peak fluorescence responses after the addition of compounds were corrected for, normalized to the background fluorescence (ΔF/F = –F − F0)/F0), and baseline noise was subtracted. Dose–response curves were calculated by non-linear regression using GraphPad PRISM 8.0.

human CaSR (wild type) = target: T2, human CaSR (wild type) (Homo sapiens, UniProt P41180); test: Calcium mobilization assay, wild-type CaSR in PEAKrapid cells; assay type: cell-based; details: WT CaSR; for EC50: PEAKrapid cells, 1 mM CaCl2 in assay buffer, mean ± s.e.m., n = 3; for Response in calcium mobilization assay: in words
T2 construct: expressed in transfected cells; host or cells: PEAKrapid cells (ATCC), pcDNA 3.1, transient transfection
T2 sequence (P41180 20-1078): T1 sequence (P41180 20-1078 P39S) with S20P
Protocol: as §1

SMILES | Response in calcium mobilization assay (human CaSR P39S mutant) | EC50 (human CaSR (wild type)) [µM] | Response in calcium mobilization assay (human CaSR (wild type)) | Emax (% of wild-type values) (human CaSR P39S mutant) | EC50 (human CaSR P39S mutant; mean ± s.e.m., n = 3) [mM]
N[C@@H](Cc1ccc(O)cc1)C(=O)O [L-Tyr, L-tyrosine] | no response | 3900 ± 1100 | weak response | – | –
CC(C)C(NC(=O)CCC(N)C(=O)O)C(=O)NCC(=O)O (stereo not drawn) [γ-EVG, γ-glutamyl-valyl-glycine] (γGlu-Val-Gly-OH; configuration not given here) | large decrease in the response | 0.18 ± 0.1 | – | – | –
[Ca+2].[Cl-].[Cl-] [CaCl2] | – | 190 ± 400 | – | 74.5 % of WT | 7.52 ± 0.23
CC(C)[C@H](NC(=O)CC[C@H](N)C(=O)O)C(=O)O [γ-EV, γ-glutamyl-valine] | no response | 10.71 ± 0.1 | weak response | – | –

From PMC11785791, “Cryo-EM structure of the calcium-sensing receptor complexed with the kokumi substance γ-glutamyl-valyl-glycine” (Scientific Reports, 2025)
